Test results as given in patent US10793591B2, “Substituted nucleosides, nucleotides and analogs thereof” (priority 2012, dated 2020).
Like-named read-outs stand apart in the source and are kept apart here.

Tests used:
[1] = system: mitochondrial protein synthesis (COX-I relative to SDH-A) in HepG2 cells
[2] = system: Huh-7 cells containing the self-replicating, subgenomic HCV replicon; test: HCV replicon assay (luciferase reporter); format: cell-based
[3] = system: HCV genotype 1b HCV replicon harbored in Huh7 cells; test: Combination testing in HCV replicon (MacSynergy II); format: cell-based; conditions: for Synergy Volume: combination with compound 18, 72 h, MacSynergy II, Bliss independence model; for Determination: combination with compound 18, class from synergy volume
[4] = biological target: human mitochondrial RNA polymerase (Homo sapiens (Human), UniProt O00411); test: DdRp assay: incorporation of nucleotides by human mitochondrial RNA polymerase (HMRP); conditions: 100 μM NTP, single turnover, product band on gel
[5] = Hepatitis C virus, Huh-7, HCV replicon cells, 72 h, Bright-Glo luciferase, read-out: EC50

Sequence of human mitochondrial RNA polymerase (O00411 42-1230): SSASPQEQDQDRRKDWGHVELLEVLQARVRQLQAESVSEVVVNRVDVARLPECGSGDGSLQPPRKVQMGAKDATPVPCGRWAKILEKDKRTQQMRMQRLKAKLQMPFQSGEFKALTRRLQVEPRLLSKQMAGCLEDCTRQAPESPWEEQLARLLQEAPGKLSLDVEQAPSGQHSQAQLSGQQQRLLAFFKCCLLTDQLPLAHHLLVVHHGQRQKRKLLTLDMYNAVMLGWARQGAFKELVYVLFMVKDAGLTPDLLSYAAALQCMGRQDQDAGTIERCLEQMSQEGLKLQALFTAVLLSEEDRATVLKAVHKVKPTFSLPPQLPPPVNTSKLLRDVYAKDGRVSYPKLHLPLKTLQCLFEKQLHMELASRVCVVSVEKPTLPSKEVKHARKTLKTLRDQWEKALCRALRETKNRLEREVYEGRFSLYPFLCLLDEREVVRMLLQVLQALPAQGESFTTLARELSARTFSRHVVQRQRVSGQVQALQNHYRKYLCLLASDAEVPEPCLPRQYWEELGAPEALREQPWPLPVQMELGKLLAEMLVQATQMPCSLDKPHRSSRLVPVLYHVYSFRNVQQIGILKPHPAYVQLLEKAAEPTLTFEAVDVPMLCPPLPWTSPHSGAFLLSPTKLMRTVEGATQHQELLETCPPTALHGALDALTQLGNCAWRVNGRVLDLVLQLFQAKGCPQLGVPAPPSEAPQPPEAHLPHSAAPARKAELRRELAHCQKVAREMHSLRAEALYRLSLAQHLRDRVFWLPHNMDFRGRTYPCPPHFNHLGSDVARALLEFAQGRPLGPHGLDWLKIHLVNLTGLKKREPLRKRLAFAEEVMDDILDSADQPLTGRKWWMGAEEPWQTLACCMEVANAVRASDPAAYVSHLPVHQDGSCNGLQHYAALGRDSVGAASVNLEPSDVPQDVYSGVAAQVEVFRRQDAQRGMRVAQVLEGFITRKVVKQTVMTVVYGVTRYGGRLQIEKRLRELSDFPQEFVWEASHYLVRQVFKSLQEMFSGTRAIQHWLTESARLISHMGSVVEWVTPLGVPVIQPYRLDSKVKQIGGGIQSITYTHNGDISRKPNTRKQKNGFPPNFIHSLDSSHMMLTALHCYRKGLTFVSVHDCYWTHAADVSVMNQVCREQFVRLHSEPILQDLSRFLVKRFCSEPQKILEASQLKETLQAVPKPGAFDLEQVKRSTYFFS

Structure (SMILES)	EC50 ([2]; Hepatitis C virus, Huh-7, 72 h)	also measured
Nc1ccn([C@H]2CC[C@@H](CO)O2)c(=O)n1 [ddC]	–	inhibition of mitochondrial protein synthesis [1]: strongly inhibit mitochondrial protein synthesis
CCOc1nc(N)nc2c1ncn2[C@@H]1O[C@]2(F)COP(=O)(OC(C)C)O[C@H]2[C@@]1(C)F (stereo partly drawn) [Compound 81]	< 1000 nM	–
CCOc1nc(N)nc2c1ncn2[C@@H]1O[C@](F)(COP(=O)(N[C@@H](C)C(=O)OC2CCCC2)Oc2ccccc2)[C@@H](O)[C@@]1(C)F (stereo partly drawn) [Compound 87]	< 1000 nM	–
COc1ccc2c(O[C@@H]3C[C@H]4C(=O)N[C@]5(C(=O)NS(=O)(=O)C6CC6)C[C@H]5/C=C\CCCCN(C)C(=O)[C@@H]4C3)cc(-c3nc(C(C)C)cs3)nc2c1C [TMC-435 (1013)]	–	Synergy Volume [3]: 97.17 μM^2%; Determination [3]: Synergistic (volumes in the 25-100 range indicate synergistic behavior)
C=C[C@]1(O)[C@H](n2ccc(=O)[nH]c2=O)O[C@](F)(COP(=O)(N[C@@H](C)C(=O)OC(C)C)Oc2ccccc2)[C@H]1O (stereo partly drawn) [Compound 77]	1000 to 10000 nM	–
Cc1cn([C@H]2C=C[C@@H](CO)O2)c(=O)[nH]c1=O [d4T]	–	inhibition of mitochondrial protein synthesis [1]: not to inhibit mitochondrial protein synthesis at concentrations up to 100 μM
C[C@H](NP(=O)(OC[C@@]1(F)O[C@@H](n2ccc(=O)[nH]c2=O)[C@](C)(O)[C@@H]1O)Oc1ccccc1)C(=O)OC1CCCCC1 (stereo partly drawn) [Compound 3]	< 1000 nM	–
CC(C)OC(=O)[C@H](C)NP(=O)(OC[C@@]1(F)O[C@@H](n2ccc(=O)[nH]c2=O)[C@](C)(O)[C@@H]1O)Oc1ccc(Cl)cc1 (stereo partly drawn) [Compound 56]	< 1000 nM	–
Nc1ncnc2c1ncn2[C@@H]1O[C@H](COP(=O)(O)OP(=O)(O)OP(=O)(O)O)[C@@H](O)[C@H]1O [ATP]	–	incorporation by HMRP (template for GTP analogs, FIG. 11) [4]: poor substrate for incorporation
CCOC(=O)[C@H](C)NP(=O)(N[C@@H](C)C(=O)OCC)OC[C@@]1(F)O[C@@H](n2ccc(=O)[nH]c2=O)[C@](C)(O)[C@@H]1O [Compound 67]	1000 to 10000 nM	–
CC(C)(C)C#Cc1cc(N(C(=O)[C@H]2CC[C@H](C)CC2)[C@H]2CC[C@H](O)CC2)c(C(=O)O)s1 [VX-222 (3003)]	–	Synergy Volume [3]: 32.35 μM^2%; Determination [3]: Synergistic (volumes in the 25-100 range indicate synergistic behavior)
COc1nc(N)nc2c1ncn2[C@@H]1O[C@H](COP(=O)(N[C@@H](C)C(=O)OCC(C)(C)C)Oc2cccc3ccccc23)[C@@H](O)[C@@]1(C)O (stereo partly drawn) [INX-08189/BMS-986094]	–	inhibition of mitochondrial protein synthesis [1]: strongly inhibit mitochondrial protein synthesis
C[C@H](NP(=O)(OC[C@@]1(F)O[C@@H](n2cnc3c(=O)[nH]c(N)nc32)[C@](C)(O)[C@@H]1O)Oc1ccccc1)C(=O)OC1CCCCC1 (stereo partly drawn) [Compound 11]	< 1000 nM	–
C#C[C@]1(O)[C@H](n2cnc3c(OCC)nc(N)nc32)O[C@](F)(CO[P@](=O)(N[C@@H](C)C(=O)OC2CCCCC2)Oc2ccccc2)[C@H]1O [Compound 34]	–	EC50 ([2]; read-out: EC50): < 1000 nM
CCOc1nc(N)nc2c1ncn2[C@@H]1O[C@](F)(COP(=O)(N[C@@H](C)C(=O)OC(CC)CC)Oc2ccccc2)[C@@H](O)[C@@]1(C)F (stereo partly drawn) [Compound 88]	< 1000 nM	–
CC(C)OC(=O)[C@H](C)NP(=O)(OC[C@@]1(F)O[C@@H](n2ccc(=O)[nH]c2=O)[C@](C)(O)[C@@H]1O)Oc1ccccc1 (stereo partly drawn) [Compound 2]	< 1000 nM	–
NC(=O)c1ncn([C@@H]2O[C@H](CO)[C@@H](O)[C@H]2O)n1 [Ribavirin (5012), Ribavirin]	–	Synergy Volume [3]: 6.77 μM^2%; Determination [3]: Additive (volumes in the −25-25 range indicate additive behavior)
CCOc1nc(N)nc2c1ncn2[C@@H]1O[C@](F)(COP(=O)(N[C@@H](C)C(=O)OC2CCCCC2)Oc2ccccc2)[C@@H](O)[C@@]1(C)O (stereo partly drawn) [Compound 16]	< 1000 nM	–
CCOc1nc(N)nc2c1ncn2[C@@H]1O[C@](F)(COP(=O)(N[C@@H](C)C(=O)OCC(C)(C)C)Oc2ccccc2)[C@@H](O)[C@@]1(C)O (stereo partly drawn) [Compound 17]	< 1000 nM	–
CCOc1nc(N)nc2c1ncn2C1O[C@](F)(COP(=O)(N[C@@H](C)C(=O)OC(C)C)Oc2ccccc2)[C@@H](O)[C@@]1(C)F (stereo partly drawn) [Compound 85]	< 1000 nM	–
CC(C)OC(=O)[C@H](C)NP(=O)(OC[C@@]1(F)O[C@@H](n2ccc(=O)[nH]c2=O)[C@](C)(O)[C@@H]1O)Oc1cccc2ccccc12 (stereo partly drawn) [Compound 54]	< 1000 nM	–
CC(C)OC(=O)OCOP(=O)(OCOC(=O)OC(C)C)OC[C@@]1(F)O[C@@H](n2ccc(=O)[nH]c2=O)[C@](C)(F)[C@@H]1O [Compound 61]	–	EC50 [2, 5]: < 1000 nM
CCOc1nc(N)nc2c1ncn2[C@@H]1O[C@](F)(COP(=O)(N[C@@H](C)C(=O)OCC(C)(C)C)Oc2ccccc2)[C@@H](O)[C@@]1(C)F (stereo partly drawn) [Compound 91]	< 1000 nM	–
CCOc1nc(N)nc2c1ncn2C1O[C@](F)(COP(=O)(N[C@@H](C)C(=O)OC(C)C)Oc2cccc3ccccc23)[C@@H](O)[C@@]1(C)F (stereo partly drawn) [Compound 83]	< 1000 nM	–

Structure (SMILES)	EC50 ([2]; Hepatitis C virus, Huh-7, 72 h)	also measured
CCOc1nc(N)nc2c1ncn2[C@@H]1O[C@](F)(COP(=O)(N[C@@H](C)C(=O)OC2CCCCC2)Oc2ccccc2)[C@@H](O)[C@@]1(C)F (stereo partly drawn) [Compound 66]	< 1000 nM	–
CCOc1nc(N)nc2c1ncn2[C@@H]1O[C@](F)(COP(=O)(N[C@@H](C)C(=O)OCC(C)(C)C)Oc2cccc3ncccc23)[C@@H](O)[C@@]1(C)F (stereo partly drawn) [Compound 89]	< 1000 nM	–
C[C@@]1(F)[C@H](O)[C@@H](COP(=O)(O)OP(=O)(O)OP(=O)(O)O)O[C@H]1n1ccc(=O)[nH]c1=O [2′-Me-2′-F-UTP]	–	incorporation by HMRP (template for UTP analogs, FIG. 10) [4]: not efficient substrates for incorporation by HMRP
CC(=O)O[C@H]1[C@@](C)(O)[C@H](n2ccc(=O)[nH]c2=O)O[C@]1(F)COP(=O)(N[C@@H](C)C(=O)OC(C)C)Oc1ccc(Cl)cc1 (stereo partly drawn) [Compound 57]	< 1000 nM	–
CC(N[P@@](=O)(OC[C@@]1(F)O[C@@H](n2ccc(=O)[nH]c2=O)[C@](C)(O)[C@@H]1O)Oc1ccccc1)C(=O)OC1CCCCC1 (stereo partly drawn) [Compound 21]	< 1000 nM	–
C=C=C[C@]1(O)[C@H](n2ccc(=O)[nH]c2=O)O[C@](F)(CO[P@@](=O)(N[C@@H](C)C(=O)OC(C)C)Oc2ccccc2)[C@H]1O [Compound 73]	1000 to 10000 nM	–
CCc1cc(CC[C@]2(C3CCCC3)CC(O)=C(Cc3nc4nc(C)cc(C)n4n3)C(=O)O2)cc(CC)n1 [Filibuvir (3007)]	–	Synergy Volume [3]: 23.51 μM^2%; Determination [3]: Additive (volumes in the −25-25 range indicate additive behavior)
CC(C)(C)C(=O)SCCCCOP(=O)(OCCCCSC(=O)C(C)(C)C)OC[C@@]1(F)O[C@@H](n2ccc(=O)[nH]c2=O)[C@](C)(O)[C@@H]1O [Compound 60]	10000 to 100000 nM	–
CCC[C@H](NC(=O)[C@@H]1[C@H]2CCC[C@H]2CN1C(=O)[C@@H](NC(=O)[C@@H](NC(=O)c1cnccn1)C1CCCCC1)C(C)(C)C)C(=O)C(=O)NC1CC1 [VX-950 (1001)]	–	Synergy Volume [3]: 32.28 μM^2%; Determination [3]: Synergistic (volumes in the 25-100 range indicate synergistic behavior)
CC(C)OC(=O)[C@H](C)NP(=O)(OC[C@@]1(F)O[C@@H](n2ccc(=O)[nH]c2=O)[C@](C)(Cl)[C@@H]1O)Oc1ccccc1 (stereo partly drawn) [Compound 62]	< 1000 nM	–
CCOc1nc(N)nc2c1ncn2[C@@H]1O[C@]2(F)COP(=O)(OCC)O[C@H]2[C@@]1(C)F (stereo partly drawn) [Compound 79]	< 1000 nM	–
C#C[C@]1(O)[C@H](n2ccc(=O)[nH]c2=O)O[C@](F)(COP(=O)(N[C@@H](C)C(=O)OC2CCCCC2)Oc2ccccc2)[C@H]1O (stereo partly drawn) [Compound 22]	< 1000 nM	–
CC(C)OC(=O)[C@H](C)NP(=O)(N[C@@H](C)C(=O)OC(C)C)OC[C@@]1(F)O[C@@H](n2ccc(=O)[nH]c2=O)[C@](C)(O)[C@@H]1O [Compound 70]	1000 to 10000 nM	–
CCOc1nc(N)nc2c1ncn2[C@@H]1O[C@](F)(COP(=O)(N[C@@H](C)C(=O)OCC(C)(C)C)Oc2cccc3ccccc23)[C@@H](O)[C@@]1(C)F (stereo partly drawn) [Compound 90]	< 1000 nM	–
CC(N[P@](=O)(OC[C@@]1(F)O[C@@H](n2ccc(=O)[nH]c2=O)[C@](C)(O)[C@@H]1O)Oc1ccccc1)C(=O)OC1CCCCC1 (stereo partly drawn) [Compound 20]	< 1000 nM	–
C#C[C@]1(O)[C@H](n2cnc3c(OCC)nc(N)nc32)O[C@](F)(CO[P@@](=O)(N[C@@H](C)C(=O)OC2CCCCC2)Oc2ccccc2)[C@H]1O [Compound 35]	–	EC50 ([2]; read-out: EC50): < 1000 nM
CCOc1nc(N)nc2c1ncn2[C@@H]1O[C@]2(F)COP(=O)(OCC(C)C)O[C@H]2[C@@]1(C)F (stereo partly drawn) [Compound 80]	1000 to 10000 nM	–
CCOc1nc(N)nc2c1ncn2C1O[C@](F)(COP(=O)(N[C@@H](C)C(=O)OCC(C)C)Oc2ccccc2)[C@@H](O)[C@@]1(C)F (stereo partly drawn) [Compound 86]	< 1000 nM	–
CC(C)OC(=O)C(C)N[P@](=O)(OC[C@@]1(F)O[C@@H](n2ccc(=O)[nH]c2=O)[C@](C)(O)[C@@H]1O)Oc1ccccc1 (stereo partly drawn) [Compound 18]	< 1000 nM	–
CNC(=O)c1c(-c2ccc(F)cc2)oc2cc(N(CCO)S(C)(=O)=O)c(C3CC3)cc12 [HCV-796 (3004)]	–	Synergy Volume [3]: 81.72 μM^2%; Determination [3]: Synergistic (volumes in the 25-100 range indicate synergistic behavior)
CCOc1nc(N)nc2c1ncn2[C@@H]1O[C@]2(F)CO[P@](=O)(OC(C)C)O[C@H]2[C@@]1(C)F [Compound 42]	–	EC50 [2, 5]: < 1000 nM
CC(C)OC(=O)C(C)N[P@@](=O)(OC[C@@]1(F)O[C@@H](n2ccc(=O)[nH]c2=O)[C@](C)(O)[C@@H]1O)Oc1ccccc1 (stereo partly drawn) [Compound 19]	< 1000 nM	–
COC(=O)N[C@H](C(=O)N1CCC[C@H]1c1nc(-c2ccc(-c3ccc(-c4c[nH]c([C@@H]5CCCN5C(=O)[C@@H](NC(=O)OC)C(C)C)n4)cc3)cc2)c[nH]1)C(C)C [BMS-790052 (4001)]	–	Synergy Volume [3]: 38.01 μM^2%; Determination [3]: Synergistic (volumes in the 25-100 range indicate synergistic behavior)
